We go through nine compounds from US5602099A, “δ opioid receptor antagonists” (Aktiebolaget Astra, priority 1993, dated 1997).

In one assay the target is T1, μ opioid receptor (Rattus norvegicus, UniProt P33535).
T1 construct: Male Sprague-Dawley rats (300-350 g) from the Canadian Breeding Laboratories were decapitated and after removal of the cerebellum the brains were homogenized; from tissue; host or cells: rat brain (without cerebellum) membranes, male Sprague-Dawley
The assay can be described thus: μ opioid receptor binding assay, displacement of [3H]DAMGO from rat brain membranes. The text has this: (§1) In the case of κ-ligands guinea pig brain homogenates were used, since the relative proportion of κ-binding sites is higher in guinea pig brain than in rat brain. The experimental procedure being used in our laboratory represents a modified version of the binding assay described by Pasternak et al. (Mol. Pharmacol. 11, 340-351, (1975)). Male Sprague-Dawley rats (300-350 g) from the Canadian Breeding Laboratories were decapitated and after removal of the cerebellum the brains were homogenized in 30 volumes of ice-cold standard buffer (50 mM Tris-HCl, pH 7.7). After centrifugation at 30,000×g for 30 min at 4° C. the membranes were reconstituted in the original volume of standard buffer and incubated for 30 min at 37° C. (to realease bound endogenous ligands). […] The incubation was terminated by filtration through Batman GF/B filters under vacuum at 4° C. Following two washings with 5 ml portions of ice-cold standard buffer the filters were transferred to scintillation vials and treated with 1 ml Protosol (New England Nuclear) for 30 min prior to the addition of 0.5 ml acetic acid and 10 ml Aquasol (New England Nuclear). After shaking for 30 min the vials were counted at an efficiency of 40-45%. All experiments were performed in duplicates and repeated at least three times. […] Values of half-maximal inhibition (IC50) of specific binding were obtained graphically from semilogarithmic plots. From the measured IC50-values, binding inhibition constants (Ki) were then calculated based on Cheng and Prusoff's equation (Biochem, Pharmacol. 22, 3099-3102 (1973)). Ratios of the Ki -values in the μ-, δ- and κ-representative binding assays are a measure of the receptor selectivety of the compound under investigation (e.g. Ki^μ /Ki^δ indicates the selectivity for δ-receptors versus μ-receptors).

The target of another assay is T2, δ opioid receptor (Rattus norvegicus, UniProt P33533).
T2 construct: Male Sprague-Dawley rats (300-350 g) from the Canadian Breeding Laboratories were decapitated and after removal of the cerebellum the brains were homogenized; from tissue; host or cells: rat brain (without cerebellum) membranes, male Sprague-Dawley
The experiment in a line: δ opioid receptor binding assay, displacement of δ-selective radioligand from rat brain membranes. Particulars: for Ki^μ /Ki^δ: δ-selectivity ratio.
Excerpt: as §1

Another assay addresses T3, δ opioid receptors (Mus musculus, UniProt P32300).
T3 construct: Bioassays Using Isolated Organ Preparations; from tissue; host or cells: mouse vas deferens (isolated organ)
The assay can be described thus: Mouse vas deferens (MVD) bioassay, antagonism of electrically evoked contraction inhibition by δ-selective agonists. In kind it is tissue-based. Particulars: MVD assay, means of 3-8 determinations. The text has this: a) Biosassys based on inhibition of electrically evoked contractions of the mouse vas deferens (MVD) and of the guinea pig ileum (GPI). In the GPI assay the opioid effect is primarily mediated by μ opioid receptors, whereas in the MVD assay the inhibition of the contractions is mostly due to interaction with δ opioid receptors.
The GPI and MVD bioassays were carded out as reported in P. W. Schiller et al., Biochem. Biophys. Res. Commun 85, 1332-1338 (1978) and J. Di Maio et al., J. Med. Chem. 25, 1432-1438 (1982). A log dose-response curve was determind with [Leu^5 ]enkephalin as standard for each ileum and vas preparation, and IC50 values of the compounds being tested were normalized according to A. A Waterfield et al., Eur. J. Pharmacol. 58, 11-18 (1979). […] These determinations were made with the MVD assay, using three different δ-selective agonists ([Leu^5 ] enkephalin, DPDPE and [D-Ala^2 ]deltorphin I].

The mark [1] stands for this setting: Ke (nM) against DPDPE, δ agonist DPDPE.
[2] abbreviates: Ke (nM) against [D-Ala2]deltorphin I, δ agonist [D-Ala2]deltorphin I.
The mark [3] stands for this setting: Ke (nM) against [Leu5]Enkephalin, δ agonist [Leu5]enkephalin.

In general, Ki refers to a measure of affinity in units of concentration, obtained from inhibition or displacement. What is called Kb is the affinity of an antagonist, worked out from how it opposes an agonist.

Where two headings read alike, the source gives them in different places. Peptide text beside a SMILES is read from it.

T3 sequence (P32300 whole entry): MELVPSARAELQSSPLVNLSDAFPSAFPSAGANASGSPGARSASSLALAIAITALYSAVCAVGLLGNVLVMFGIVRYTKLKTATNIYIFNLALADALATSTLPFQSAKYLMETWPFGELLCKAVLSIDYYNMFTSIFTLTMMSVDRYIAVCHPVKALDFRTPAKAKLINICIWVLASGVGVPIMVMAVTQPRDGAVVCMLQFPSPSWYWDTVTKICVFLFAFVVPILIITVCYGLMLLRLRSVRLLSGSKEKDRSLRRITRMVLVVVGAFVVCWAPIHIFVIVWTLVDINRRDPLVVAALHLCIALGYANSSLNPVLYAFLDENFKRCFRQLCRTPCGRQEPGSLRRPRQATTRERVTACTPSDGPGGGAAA
T2 sequence (P33533 whole entry): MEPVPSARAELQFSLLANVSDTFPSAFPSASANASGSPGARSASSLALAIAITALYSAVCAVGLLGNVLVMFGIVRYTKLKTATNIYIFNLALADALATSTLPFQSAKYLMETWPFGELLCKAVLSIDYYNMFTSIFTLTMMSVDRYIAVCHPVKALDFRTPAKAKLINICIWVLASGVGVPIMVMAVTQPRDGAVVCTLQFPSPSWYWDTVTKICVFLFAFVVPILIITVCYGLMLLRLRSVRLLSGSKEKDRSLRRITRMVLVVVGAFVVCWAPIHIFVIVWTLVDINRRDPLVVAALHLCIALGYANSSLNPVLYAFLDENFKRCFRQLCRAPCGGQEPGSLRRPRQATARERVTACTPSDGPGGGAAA
T1 sequence (P33535 whole entry): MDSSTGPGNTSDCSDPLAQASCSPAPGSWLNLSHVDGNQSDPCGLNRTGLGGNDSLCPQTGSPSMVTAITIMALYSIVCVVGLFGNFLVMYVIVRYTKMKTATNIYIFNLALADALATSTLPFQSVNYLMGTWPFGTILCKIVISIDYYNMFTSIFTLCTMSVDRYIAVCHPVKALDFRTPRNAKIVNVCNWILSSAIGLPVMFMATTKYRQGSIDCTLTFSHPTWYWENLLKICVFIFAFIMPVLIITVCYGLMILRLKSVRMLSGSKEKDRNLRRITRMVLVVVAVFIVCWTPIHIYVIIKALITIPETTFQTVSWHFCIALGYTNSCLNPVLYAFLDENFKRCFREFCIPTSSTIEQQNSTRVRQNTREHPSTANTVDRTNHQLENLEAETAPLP

Consider `N=C(N)NCCC[C@H](N)C(=O)N[C@@H](Cc1ccc(O)cc1)C(=O)N1Cc2ccccc2C[C@H]1C(=O)N[C@@H](Cc1ccccc1)C(=O)N[C@@H](Cc1ccccc1)C(N)=O` [HArgTyrTicPhePheNH2, H-Arg-Tyr-Tic-Phe-Phe-NH2] (HELM PEPTIDE1{R.Y.[Tic].F.F.[am]}$$$$V2.0), for which the Ki is 107 ± 2 nM on μ opioid receptor (rat brain membranes, means of 3 determinations, read-out: Ki^μ) and 4.79 nM on δ opioid receptor (rat brain membranes, means of 3 determinations, read-out: Ki^.xi.). Moreover, at δ opioid receptor, the “Ki^μ /Ki^δ” value was 22.3.
Regarding `Cc1cc(O)cc(C)c1C[C@H](N)C(=O)N1Cc2ccccc2C[C@H]1CN[C@@H](Cc1ccccc1)C(=O)N[C@@H](Cc1ccccc1)C(=O)O` [HDmtTic.psi.[CH2NH]PhePheOH, H-Dmt-Tic.PSI.[CH2 --NH]Phe-Phe-OH], the Kb came out at 0.196 nM on δ opioid receptors (setting [1]), 0.157 nM at δ opioid receptors (setting [2]) and 0.259 nM on δ opioid receptors (setting [3]). Also, the Ki on μ opioid receptor worked out at 95.5 nM; at δ opioid receptor it was 1.7 nM.
Consider `N[C@@H](Cc1ccc(O)cc1)C(=O)N1Cc2ccccc2C[C@H]1C(=O)N[C@@H](Cc1cccc2ccccc12)C(=O)N[C@@H](Cc1ccccc1)C(=O)O` [HTyrTic-1-NalPheOH, H-Tyr-Tic-1-Nal-Phe-OH] (HELM PEPTIDE1{Y.[Tic].[O=C([C@H](Cc1cccc2ccccc12)N[*:1])[*:2]].F}$$$$V2.0), for which the Ki on μ opioid receptor amounted to 1120 nM. Also, on δ opioid receptor, the Ki worked out at 1.14 nM and the “Ki^μ /Ki^δ” value was found to be 982.
In the case of `N[C@@H](Cc1ccc(O)cc1)C(=O)N1Cc2ccccc2C[C@H]1C(=O)N[C@@H](Cc1ccc2ccccc2c1)C(=O)N[C@@H](Cc1ccccc1)C(=O)O` [HTyrTic-2-NalPheOH, H-Tyr-Tic-2-Nal-Phe-OH] (HELM PEPTIDE1{Y.[Tic].[O=C([C@H](Cc1ccc2ccccc2c1)N[*:1])[*:2]].F}$$$$V2.0), the results for the antagonist dissociation constant (Kb) on δ opioid receptors (setting [1]), on δ opioid receptors (setting [2]) and on δ opioid receptors (setting [3]) were 4.41 nM, 4.17 nM and 2.64 nM, respectively. Also, the results for the Ki at μ opioid receptor and on δ opioid receptor were 6330 nM and 1.31 nM, respectively. Further, on δ opioid receptor, the “Ki^μ /Ki^δ” value was determined as 4830.
On to `NC(=O)[C@H](Cc1ccccc1)NC(=O)[C@@H]1Cc2ccccc2CN1C(=O)[C@@H](N)Cc1ccc(O)cc1` [HTyrTicPheNH2, H-Tyr-Tic-Phe-NH2] (HELM PEPTIDE1{Y.[Tic].F.[am]}$$$$V2.0), for which the Kb amounted to 96.8 nM on δ opioid receptors (setting [1]), 58.9 nM at δ opioid receptors (setting [2]) and 43.9 nM at δ opioid receptors (setting [3]). The “Ki^μ /Ki^δ” value at δ opioid receptor worked out at 52.0.
On the same counts, the results for `NC(=O)[C@H](Cc1c[nH]c2ccccc12)NC(=O)[C@H](Cc1ccccc1)NC(=O)[C@@H]1Cc2ccccc2CN1C(=O)[C@@H](N)Cc1ccc(O)cc1` [HTyrTicPheTrpNH2, H-Tyr-Tic-Phe-Trp-NH2] (HELM PEPTIDE1{Y.[Tic].F.W.[am]}$$$$V2.0) are 41.3 nM, 38.6 nM, 49.5 nM and 258.
On the same counts, the results for `NC(=O)[C@H](Cc1ccccc1)NC(=O)[C@H](Cc1c[nH]c2ccccc12)NC(=O)[C@@H]1Cc2ccccc2CN1C(=O)[C@@H](N)Cc1ccc(O)cc1` [HTyrTicTrpPheNH2, H-Tyr-Tic-Trp-Phe-NH2] (HELM PEPTIDE1{Y.[Tic].W.F.[am]}$$$$V2.0) are 4.65 nM, 2.31 nM, 3.24 nM and 709.
On the same counts, the results for `N[C@@H](Cc1ccc(O)cc1)C(=O)N1Cc2ccccc2C[C@H]1C(=O)N[C@@H](Cc1c[nH]c2ccccc12)C(=O)N[C@@H](Cc1ccccc1)C(=O)O` [HTyrTicTrpPheOH, H-Tyr-Tic-Trp-Phe-OH] (HELM PEPTIDE1{Y.[Tic].W.F}$$$$V2.0) are 2.56 nM, 1.65 nM, 2.37 nM and 5950.
`C=CCN(CC=C)[C@@H](Cc1ccc(O)cc1)C(=O)NC(C)(C)C(=O)NC(C)(C)C(=O)N[C@@H](Cc1ccccc1)C(=O)N[C@@H](CC(C)C)C(=O)O` [ICI 174864, N,N-diallyl-Tyr-Aib-Aib-Phe-Leu-OH, reference compound] (HELM PEPTIDE1{[C=CCN(CC=C)[C@@H](Cc1ccc(O)cc1)C(=O)[*:2]].[Aib].[Aib].F.L}$$$$V2.0): on δ opioid receptor (comparison with the δ antagonists described in this patent application), the “δ-selectivity, times less than the δ antagonists of this application” value is 10-300 times.
